Data reported in PubChem BioAssay (NCI).
Where “and” joins values, the source holds several entries; their conditions need not be identical. Identical values can stand only once.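 Values below derive from 48-hour exposures of cells grown in 96-well plates, with endpoints linearly interpolated between the two concentrations bracketing the appropriate inhibition level. GI50: concentration for 50% inhibition of growth. TGI: total growth inhibition.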

How the values were obtained:
Experiment in all cases: DTP human tumour cell line panel, 48 h
MCF7 breast = system: MCF7 breast
MDA-MB-435 = system: MDA-MB-435
NCI/ADR-RES ovarian = system: NCI/ADR-RES ovarian
T-47D breast = system: T-47D breast
KM20L2 colon = system: KM20L2 colon
M19-MEL melanoma = system: M19-MEL melanoma
RXF-631 renal = system: RXF-631 renal
MDA-N = system: MDA-N
HOP-18 NSCLC = system: HOP-18 NSCLC

Compound	GI50 (MCF7 breast) [µM]	TGI (MCF7 breast)	GI50 (MDA-MB-435) [µM]	TGI (MDA-MB-435)	GI50 (NCI/ADR-RES ovarian) [µM]	TGI (NCI/ADR-RES ovarian)	GI50 (T-47D breast) [µM]	TGI (T-47D breast)	TGI (KM20L2 colon) [µM]	TGI (M19-MEL melanoma) [µM]	TGI (RXF-631 renal) [µM]	GI50 (M19-MEL melanoma) [µM]	TGI (MDA-N) [µM]	TGI (HOP-18 NSCLC) [µM]
COC1/C=C/OC2(C)Oc3c(C)c(O)c4c(O)c(c(C=NOC(c5ccccc5)c5ccccc5)c(O)c4c3C2=O)NC(=O)/C(C)=C/C=C/C(C)C(O)C(C)C(O)C(C)C(OC(C)=O)C1C (stereo not given)	1.31	3.81 µM	1.18	3.01 µM	1.67	6.19 µM	1.87	6.71 µM	–	–	–	–	–	–
COc1cc(OC)c(/C=C/C(=O)c2c(O)cc(OC)c(C3CCN(C)CC3)c2OC)c(OC)c1	–	–	1.53	2.92 µM	–	–	1.76	3.25 µM	–	–	–	–	–	–
c1ccc(N2N=NC3C4CC(C5c6ccccc6C45)C32)cc1 (stereo not given)	–	–	–	–	–	–	–	–	> 100	46.7	> 100	–	–	–
COc1cccc(/C=C2\CCc3ccccc3C2=O)c1	3.53	17.8 µM	4.15	20.1 µM	10.1	48.8 µM	13.6	38.9 µM	–	–	–	–	–	–
O=C(c1ccccc1)c1c2n(c3c1cc(O)c1ccccc13)CCN2	1.97	3.87 µM	1.99	3.73 µM	23.5	> 100 µM	1.77	3.99 µM	–	–	–	–	–	–
C1C[S][Ge]2([S]CCS1)[S]CCSCC[S]2	–	–	–	–	–	–	–	–	–	> 100	–	> 100	–	–
O=C1Nc2c(ccc(Cl)c2Cl)/C1=C\c1cc(C(F)(F)F)cc(C(F)(F)F)c1	0.848	5.64 µM	1.99	7.64 µM	6.38	14.8 µM	2.5	10.2 µM	–	–	–	–	–	–
CS(=O)(=O)c1ccc(-c2cnc(NCc3ccco3)n3cnnc23)cc1	60.4	> 100 µM	54.5	> 100 µM	> 100	> 100 µM	47.8	> 100 µM	–	–	–	–	–	–
C=CCCCC(O)c1ccc(C(O)c2cnc3ccccc3c2)o1 (stereo not given)	26	> 100 µM	22.5	48.4 µM	15.2	36.9 µM	> 100	> 100 µM	–	–	–	–	–	–
CNC(=O)c1cc(Oc2ccc3nc(NC(=O)Nc4cc(C(F)(F)F)cc(C(F)(F)F)c4)sc3c2)ccn1	1.05	2.93 µM	1.04	2.7 µM	–	–	0.479	2.3 µM	–	–	–	–	–	–
CC(O)c1ccc(C(O)/C(=N\NC(=O)c2ccncc2)c2nc3ccc([N+](=O)[O-])cc3[nH]c2=O)cc1 (stereo not given)	–	–	–	–	–	–	–	–	> 100	> 100	> 100	–	–	–
COc1ccc2c(c1)C(=O)c1c-2c(OCCN2CCCCC2)nc2ccc(OC)cc12	0.275	2.05 µM	0.648	2.28 µM	0.761	10.3 µM	3.44	25.8 µM	–	–	–	–	–	–
O=C1c2ccccc2-c2ccccc2C1(Cl)Cl	1.86	4.19 µM	0.197	0.372 µM	0.398	1.85 µM	1.6	4.12 µM	–	–	–	–	–	–
O=C(O)c1c[nH]c2c(ccc3[nH]cc(C(=O)O)c(=O)c32)c1=O	–	> 100 µM	–	> 100 µM	–	> 100 µM	–	> 100 µM	–	–	–	–	> 100	–
Cc1ccnc(NC(c2ccccc2)c2ccc3cccnc3c2O)c1 (stereo not given)	5.18	30.4 µM	4.18	30.5 µM	2.47	14.9 µM	4.22	35.1 µM	–	–	–	–	–	–
CC(C)=Cc1cc(C(=O)NCCNC(=O)c2cc(C=C(C)C)nc(NC#N)n2)nc(NC#N)n1	–	–	–	–	–	–	–	–	> 100	> 100	–	–	–	> 100
COc1ccc(/C=C/C(=O)c2ccccc2)cc1OC	3.3	11.8 µM and 13.4 µM	6.89	14.6 µM and 25.2 µM	8.33	> 100 µM and 93.1 µM	18.4	48.7 µM and 60.8 µM	–	–	–	–	15.3	–
CN1c2ccccc2S(=O)(=O)n2c(COc3ccccc3)nnc21	–	> 100 µM	–	> 100 µM	–	> 100 µM	–	> 100 µM	–	–	–	–	> 100	–
C=C(C)[C@@H]1CC[C@]2(C(=O)N3CCN(C)CC3)CC[C@]3(C)[C@H](CC[C@@H]4[C@@]5(C)CC[C@H](O)C(C)(C)[C@@H]5CC[C@]43C)[C@@H]12	1.79	4.22 µM	1.8	3.5 µM	–	–	1.48	3.75 µM	–	–	–	–	–	–
Clc1ccc(Nc2ncnc3c2sc2ncccc23)c(Cl)c1	< 0.01	> 100 µM	0.0482	> 100 µM	0.0139	> 100 µM	–	–	–	–	–	–	–	–
COC(=O)[C@H](C)[C@@H]1CC[C@](C)(CCC2=C(C)CCCC2(C)C)OO1	–	> 25 µM	–	> 25 µM	–	> 25 µM	–	> 25 µM	–	–	–	–	> 25	–
COc1ccc2c(c1)CC1N(C)CCC13CCCCC23 (stereo not given)	–	> 100 µM	–	> 100 µM	–	> 100 µM	–	> 100 µM	–	–	–	–	> 100	–
COC(=O)c1cc2c(nc1C)-c1ccccc1OS2(=O)=O	–	–	–	–	–	–	–	–	> 100	> 100	> 100	–	–	–
Cc1cc(N(CCC#N)CCC#N)ccc1CC1N=C(c2ccccc2)OC1=O (stereo not given)	–	–	–	–	–	–	–	–	> 100	> 100	> 100	–	–	–
Cc1nc2cc(Nc3nc(Nc4ccc(F)cc4)nc(N4CCCC4)n3)ccc2n1Cc1ccccc1	2.22	7.44 µM	1.62	3.09 µM	1.96	3.94 µM	2.18	4.94 µM	–	–	–	–	–	–
O=c1[nH]c(-c2ccc([N+](=O)[O-])cc2)nc2ccc(Cl)cc12	–	–	–	–	–	–	–	–	> 100	> 100	–	–	–	–
CCOC(=O)CP(=S)(S)c1ccccc1 (stereo not given)	–	–	–	–	–	–	–	–	> 100	> 100	–	–	–	–
O=C1NC(Cc2ccccc2)C(=O)N2CCCC12 (stereo not given)	–	–	–	–	–	–	–	–	> 100	> 100	–	–	–	> 100
O=C(O)C1C2CCC(O2)C1C(=O)NCc1cccnc1 (stereo not given)	–	> 100 µM	–	> 100 µM	–	> 100 µM	–	> 100 µM	–	–	–	–	> 100	–
CCC1OC(=O)CC(O)C(C)C(OC2OC(C)CC(N(C)C)C2O)C(CC=O)CC(C)C(=O)/C=C/C2(C)OC2C1C (stereo not given)	–	25 µM	–	40.3 µM	–	86.7 µM	–	48.6 µM	–	–	–	–	> 100	–
